Measurements: patent US10364245B2 (CHIESI FARMACEUTICI S.p.A., priority 2017, dated 2019)
Where a name gives a salt, the structure may show the parent alone.

What was measured:
p38 alpha = target: T1, p38 alpha (Homo sapiens, UniProt Q16539); test: P38 alpha enzyme inhibition assay (Alphascreen kinase activity assay); format: biochemical; conditions: 100 pM p38 alpha, 2 hours preincubation at 25° C., 250 μM ATP, ATF-2 fusion protein; read-out: p38α inhibition
T1 construct: purchased Invitrogen PV3304
Summary of the method: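 100 pM p38 alpha preincubated 2 h at 25 °C with compound and 0.3 μg/ml ATF-2 fusion substrate (HEPES pH 7.5, MgCl2, 1% DMSO). Reaction started with 250 μM ATP, run 1 h at 25 °C, stopped with EDTA; phospho-ATF2 detected by AlphaScreen luminescence. IC50 from concentration-response curves.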

[1] = test system: Peripheral Blood Mononuclear Cells (PBMCs), TNFα release; test: LPS-stimulated PBMC TNFα release assay; format: cell-based; conditions: human PBMC, LPS (10 ng/ml), 18 h, compound 1 h before LPS; read-out: LPS-stimulated PBMC TNFα release inhibition
Summary of the method: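 Human PBMCs from healthy donors, serum-starved 3 h, then pre-incubated 1 h at 37 °C with compound in 1% FBS medium before LPS (10 ng/ml) for 18 h. Supernatant TNFα measured by MSD; IC50 from dose-response as % inhibition of control, at least three experiments.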

T1 sequence (Q16539 whole entry, the tested form may be a part): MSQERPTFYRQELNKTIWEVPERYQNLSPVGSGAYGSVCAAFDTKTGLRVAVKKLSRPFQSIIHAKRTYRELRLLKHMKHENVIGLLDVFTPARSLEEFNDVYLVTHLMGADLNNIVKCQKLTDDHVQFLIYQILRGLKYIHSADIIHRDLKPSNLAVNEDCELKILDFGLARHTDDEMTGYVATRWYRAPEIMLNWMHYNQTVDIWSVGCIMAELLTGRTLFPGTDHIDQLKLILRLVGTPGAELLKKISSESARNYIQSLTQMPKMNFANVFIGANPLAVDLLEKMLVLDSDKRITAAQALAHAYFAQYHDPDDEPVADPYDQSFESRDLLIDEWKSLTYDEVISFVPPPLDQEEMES

IC50 (p38 alpha) | Structure (SMILES) | IC50 [1]
< 1 nM | CN(C)CCNC(=O)c1cc(NC(=O)N[C@H]2CC[C@@H](Oc3ccc4nnc(C(C)(C)C)n4c3)c3ccccc32)cc(C(C)(C)C)n1 [Example 186, 6-(tert-butyl)-4-(3-((1S,4R)-4-((3-(tert-butyl)-[1,2,4]triazolo[4,3-a]pyridin-6-yl)oxy)-1,2,3,4-tetrahydronaphthalen-1-yl)ureido)-N-(2-(dimethylamino)ethyl)-picolinamide] | < 1 nM
1 to 10 nM | CC(C)(C)c1cc(NC(=O)N[C@H]2CC[C@@H](Oc3ccc4nnc(C(C)(C)C)n4c3)c3ccccc32)cc(C(=O)NCCCN2CCOCC2)n1 [Example 187, 6-(tert-butyl)-4-(3-((1S,4R)-4-((3-(tert-butyl)-[1,2,4]triazolo[4,3-a]pyridin-6-yl)oxy)-1,2,3,4-tetrahydronaphthalen-1-yl)ureido)-N-(3-morpholinopropyl)-picolinamide] | 1 to 5 nM
< 1 nM | CN(CCO)CCNC(=O)c1cc(NC(=O)N[C@H]2CC[C@@H](Oc3ccc4nnc(C(C)(C)C)n4c3)c3ccccc32)cc(C(C)(C)C)n1 [Example 188, 6-(tert-butyl)-4-(3-((1S,4R)-4-((3-(tert-butyl)-[1,2,4]triazolo[4,3-a]pyridin-6-yl)oxy)-1,2,3,4-tetrahydronaphthalen-1-yl)ureido)-N-(2-((2-hydroxyethyl)(methyl)-amino)ethyl)picolinamide] | 1 to 5 nM
1 to 10 nM | CC(C)(C)c1cc(NC(=O)N[C@H]2CC[C@@H](Oc3ccc4nnc(C(C)(C)C)n4c3)c3ccccc32)cc(C(=O)NCCN2CCCOCC2)n1 [Example 189, N-(2-(1,4-oxazepan-4-yl)ethyl)-6-(tert-butyl)-4-(3-((1S,4R)-4-((3-(tert-butyl)-[1,2,4]triazolo[4,3-a]pyridin-6-yl)oxy)-1,2,3,4-tetrahydronaphthalen-1-yl)ureido)picolinamide] | 1 to 5 nM
1 to 10 nM | CCN(C)CCNC(=O)c1cc(NC(=O)N[C@H]2CC[C@@H](Oc3ccc4nnc(C(C)(C)C)n4c3)c3ccccc32)cc(C(C)(C)C)n1 [Example 191, 6-(tert-butyl)-4-(3-((1S,4R)-4-((3-(tert-butyl)-[1,2,4]triazolo[4,3-a]pyridin-6-yl)oxy)-1,2,3,4-tetrahydronaphthalen-1-yl)ureido)-N-(2-(ethyl(methyl)amino)-ethyl)picolinamide] | 1 to 5 nM
1 to 10 nM | COC1CN(CCNC(=O)c2cc(NC(=O)N[C@H]3CC[C@@H](Oc4ccc5nnc(C(C)(C)C)n5c4)c4ccccc43)cc(C(C)(C)C)n2)C1 [Example 193, 6-(tert-butyl)-4-(3-((1S,4R)-4-((3-(tert-butyl)-[1,2,4]triazolo[4,3-a]pyridin-6-yl)oxy)-1,2,3,4-tetrahydronaphthalen-1-yl)ureido)-N-(2-(3-methoxyazetidin-1-yl)ethyl)picolinainide] | 1 to 5 nM
< 1 nM | CC(C)(C)c1cc(NC(=O)N[C@H]2CC[C@@H](Oc3ccc4nnc(C(C)(C)C)n4c3)c3ccccc32)cc(C(=O)NCCN2CC[C@H](O)C2)n1 [Example 195, 6-(tert-butyl)-4-(3-((1S,4R)-4-((3-(tert-butyl)-[1,2,4]triazolo[4,3-a]pyridin-6-yl)oxy)-1,2,3,4-tetrahydronaphthalen-1-yl)ureido)-N-(2-((S)-3-hydroxypyrrolidin-1-yl)ethyl)picolinamide] | > 5 nM
< 1 nM | CC(C)(C)c1cc(NC(=O)N[C@H]2CC[C@@H](Oc3ccc4nnc(C(C)(C)C)n4c3)c3ccccc32)cc(C(=O)NCCN2CC(O)C2)n1 [Example 197, 6-(tert-butyl)-4-(3-((1S,4R)-4-((3-(tert-butyl)-[1,2,4]triazolo[4,3-a]pyridin-6-yl)oxy)-1,2,3,4-tetrahydronaphthalen-1-yl)ureido)-N-(2-(3-hydroxyazetidin-1-yl)ethyl)picolinamide] | > 5 nM

More lines, now with the values behind:

Structure (SMILES) | IC50 (p38 alpha) | IC50 [1]
CN(C)C(C)(C)CNC(=O)c1nc(NC(=O)N[C@H]2CC[C@@H](Oc3ccc4nnc(C5(C)CCCC5)n4c3)c3ccccc32)cc(C(C)(C)C)n1 [Example 183, 4-(tert-butyl)-N-(2-(dimethylamino)-2-methylpropyl)-6-(3-((1S,4R)-4-((3-(1-methylcyclopentyl)-[1,2,4]triazolo[4,3-a]pyridin-6-yl)oxy)-1,2,3,4-tetrahydronaphthalen-1-yl)ureido)pyrimidine-2-carboxamide] | < 1 nM | 1 to 5 nM
CC(C)(C)c1cc(NC(=O)N[C@H]2CC[C@@H](Oc3ccc4nnc(C5(C)CCCC5)n4c3)c3ccccc32)nc(C(=O)NCCCN2CCOCC2)n1 [Example 184, 4-(tert-Butyl)-6-(3-((1S,4R)-4-((3-(1-methylcyclopentyl)-[1,2,4]triazolo[4,3-a]pyridin-6-yl)oxy)-1,2,3,4-tetrahydronaphthalen-1-yl)ureido)-N-(3-morpholinopropyl)-pyrimidine-2-carboxamide formate salt] | < 1 nM | < 1 nM
COCC(C)(C)c1nnc2ccc(O[C@@H]3CC[C@H](NC(=O)Nc4cc(C(=O)NCCN(C)C)nc(C(C)(C)C)c4)c4ccccc43)cn12 [Example 190, 6-(tert-butyl)-N-(2-(dimethylamino)ethyl)-4-(3-((1S,4R)-4-((3-(1-methoxy-2-methylpropan-2-yl)-[1,2,4]triazolo[4,3-a]pyridin-6-yl)oxy)-1,2,3,4-tetrahydronaphthalen-1-yl)ureido)picolinamide] | < 1 nM | 1 to 5 nM
COCCN(C)CCNC(=O)c1cc(NC(=O)N[C@H]2CC[C@@H](Oc3ccc4nnc(C(C)(C)C)n4c3)c3ccccc32)cc(C(C)(C)C)n1 [Example 192, 6-(tert-butyl)-4-(3-((1S,4R)-4-((3-(tert-butyl)-[1,2,4]triazolo[4,3-a]pyridin-6-yl)oxy)-1,2,3,4-tetrahydronaphthalen-1-yl)ureido)-N-(2-((2-methoxyethyl)(methyl)-amino)ethyl)picolinamide] | 1 to 10 nM | 1 to 5 nM
COCC(C)(C)c1nnc2ccc(O[C@@H]3CC[C@H](NC(=O)Nc4cc(C(=O)NCC(C)(C)N(C)C)nc(C(C)(C)C)c4)c4ccccc43)cn12 [Example 196, 6-(tert-butyl)-N-(2-(dimethylamino)-2-methylpropyl)-4-(3-((1S,4R)-4-((3-(1-methoxy-2-methylpropan-2-yl)-[1,2,4]triazolo[4,3-a]pyridin-6-yl)oxy)-1,2,3,4-tetrahydronaphthalen-1-yl)ureido)picolinamide] | 1 to 10 nM | > 5 nM
CN1CCN(C(C)(C)c2nnc3ccc(O[C@@H]4CC[C@H](NC(=O)Nc5cc(CO)nc(C(C)(C)C)c5)c5ccccc54)cn23)CC1 [Example 198, 1-(2-(tert-butyl)-6-(hydroxymethyl)pyridin-4-yl)-3-((1S,4R)-4-((3-(2-(4-methylpiperazin-1-yl)propan-2-yl)-[1,2,4]triazolo[4,3-a]pyridin-6-yl)oxy)-1,2,3,4-tetrahydronaphthalen-1-yl)urea] | < 1 nM | > 5 nM
CN(C)CCNC(=O)c1cc(NC(=O)N[C@H]2CC[C@@H](Oc3ccc4nnc(C(C)(C)N5CCN(C)CC5)n4c3)c3ccccc32)cc(C(C)(C)C)n1 [Example 199, 6-(tert-Butyl)-N-(2-(dimethylamino)ethyl)-4-(3-((1S,4R)-4-((3-(2-(4-methylpiperazin-1-yl)propan-2-yl)-[1,2,4]triazolo[4,3-a]pyridin-6-yl)oxy)-1,2,3,4-tetrahydronaphthalen-1-yl)ureido)picolinamide formate salt] | 1 to 10 nM | > 5 nM
